{"source": "patent US8722849B2", "about": "“Polypeptides” (Novo Nordisk A/S, priority 2011, dated 2014)", "key": {"[1]": {"experiment": "Assay (III) ThT fibrillation assay for physical stability", "format": "physicochemical", "description": "ASSAY (III)—ThT Fibrillation Assays for the Assessment of Physical Stability of Protein formulations Low physical stability of a polypeptide may lead to amyloid fibril formation, which is observed as well-ordered, thread-like macromolecular structures in the sample eventually resulting in gel formation. This has traditionally been measured by visual inspection of the sample. However, that kind of measurement is very subjective and depending on the observer. Therefore, the application of a small molecule indicator probe is much more advantageous. Thioflavin T (ThT) is such a probe and has a distinct fluorescence signature when binding to fibrils [Naiki et al. (1989) Anal. Biochem. 177, 244-249; LeVine (1999) Methods. Enzymol. […], 274-284]. The time course for fibril formation can be described by a sigmoidal curve with the following expression [Nielsen et al. (2001) Biochemistry 40, 6036-6046]: [formula] Here, F is the ThT fluorescence at the time t. The constant t0 is the time needed to reach 50% of maximum fluorescence. […] Few of those intermediates nucleate to form a template onto which further intermediates may assembly and the fibrillation proceeds. The lag-time corresponds to the interval in which the critical mass of nucleus is built up and the apparent rate constant is the rate with which the fibril itself is formed. Sample Preparation Samples were prepared freshly before each assay. Each sample composition is described in each example. The pH of the sample was adjusted to the desired value using appropriate amounts of concentrated NaOH and HClO4 or HCl. Thioflavin T was added to the samples from a stock solution in H2O to a final concentration of 1 μM. Sample aliquots of 200 μl were placed in a 96 well microtiter plate (Packard OptiPlate™-96, white polystyrene). Usually, four or eight replica of each sample (corresponding to one test condition) were placed in one column of wells. The plate was sealed with Scotch Pad (Qiagen). Incubation and Fluorescence Measurement Incubation at given temperature, shaking and measurement of the ThT fluorescence emission were done in a Fluoroskan Ascent FL fluorescence platereader or Varioskan platereader (Thermo Labsystems). The temperature was adjusted to 37° C. The orbital shaking was adjusted to 960 rpm with an amplitude of 1 mm in all the presented data. Fluorescence measurement was done using excitation through a 444 nm filter and measurement of emission through a 485 nm filter. Each run was initiated by incubating the plate at the assay temperature for 10 min. The plate was measured every 20 minutes for a desired period of time. Between each measurement, the plate was shaken and heated as described. Data Handling The measurement points were saved in Microsoft Excel format for further processing and curve drawing and fitting was performed using GraphPad Prism. The background emission from ThT in the absence of fibrils was negligible. The data points are typically a mean of four or eight samples and shown with standard deviation error bars. Only data obtained in the same experiment (i.e. samples on the same plate) are presented in the same graph ensuring a relative measure of fibrillation between experiments. The data set may be fitted to Eq. (1). However, since full sigmodial curves in this case are not always achieved during the measurement time, the degree of fibrillation is expressed as ThT fluorescence tabulated as the mean of the samples and shown with the standard deviation at various time points. Measurement of Initial and Final Concentrations The polypeptide concentration in each of the tested formulations were measured both before application in the ThT fibrillation assay (“Initial”) and after completion of the ThT fibrillation (“After ThT assay”). Concentrations were determined by reverse HPLC methods using a pramlintide standard as a reference. Before measurement after completion 150 μl was collected from each of the replica and transferred to an Eppendorf tube. […]"}, "[2]": {"experiment": "Assay (IV) determination of solubility", "format": "physicochemical", "summary_of_the_method": "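Polypeptide in water (~500 nmol/ml stock) was mixed 1:1 with 100 mM buffers from pH 3.0 to 8.0 (glycylglycine pH 3.0–5.0; bistrispropane pH 6.0–8.0). After 18 hours at room temperature, samples were centrifuged and the polypeptide remaining in solution was quantified by HPLC.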"}}, "note": "Where two headings read alike, the source gives them in different places. Starred links: 1 amine or outer side, 2 acyl side, 3 side chain; linkers in the order of their positions; H or OH if unused. Positions of bridges follow the written chain, without caps; N, C: chain ends. Residues, ends and D or L forms follow the SMILES beside them. Groups on a side chain read outwards from the residue. *: point of attachment. C20 diacid = O=C(O)CCCCCCCCCCCCCCCCCCC(=O)*; C18 diacid = O=C(O)CCCCCCCCCCCCCCCCC(=O)*; γGlu = O=C(O)[C@H](CCC(=O)[*:2])N[*:1]; AEEA = NCCOCCOCC(=O)O", "data": [{"molecule": "CC(C)C[C@H](NC(=O)[C@H](CCCNC(=N)N)NC(=O)[C@H](CCC(N)=O)NC(=O)[C@@H](NC(=O)[C@H](C)NC(=O)[C@@H]1CSSC[C@H](NC(=O)[C@H](Cc2c[nH]cn2)NC(=O)CC[C@H](NC(=O)CCCCCCCCCCCCCCCCCCC(=O)O)C(=O)O)C(=O)N[C@@H](CC(N)=O)C(=O)N[C@@H]([C@@H](C)O)C(=O)N[C@@H](C)C(=O)N[C@@H]([C@@H](C)O)C(=O)N1)[C@@H](C)O)C(=O)N[C@@H](C)C(=O)N[C@@H](CCC(=O)O)C(=O)N[C@@H](Cc1ccccc1)C(=O)N[C@@H](CC(C)C)C(=O)N[C@@H](Cc1c[nH]cn1)C(=O)N[C@@H](CCCNC(=N)N)C(=O)N[C@@H](CO)C(=O)N[C@@H](CO)C(=O)N[C@@H](CC(N)=O)C(=O)N[C@@H](CC(N)=O)C(=O)N[C@@H](Cc1ccccc1)C(=O)NCC(=O)N[C@@H](C)C(=O)N1CCC[C@H]1C(=O)N[C@@H](CC(C)C)C(=O)N[C@@H](CO)C(=O)N[C@@H](CO)C(=O)N[C@H](C(=O)N[C@@H](CC(N)=O)C(=O)N[C@H](C(=O)NCC(=O)N[C@@H](CO)C(=O)N[C@@H](CC(N)=O)C(=O)N[C@H](C(=O)N[C@@H](Cc1ccc(O)cc1)C(N)=O)[C@@H](C)O)C(C)C)[C@@H](C)O", "note": "[Example 6, N-alpha-[(S)-4-Carboxy-4-(19-carboxynonadecanoylamino)butyryl]-[His1,Glu14,His17,Arg18,Ala25,Pro26,Ser28,Ser29]-pramlintide] ({C20 diacid-γGlu}-HCNTATCATQRLAEFLHRSSNNFGAPLSSTNVGSNTY-NH2; disulfide 2-7 (inferred))", "values": [{"measurement": "ThT pH 4.0 lag time (h)", "setting": "[1]; ThT fibrillation assay", "value": 14, "unit": "h"}]}, {"molecule": "CC[C@H](C)[C@H](NC(=O)[C@@H]1CCCN1C(=O)CNC(=O)[C@H](Cc1ccccc1)NC(=O)[C@H](CC(N)=O)NC(=O)[C@H](CCCCNC(=O)COCCOCCNC(=O)COCCOCCNC(=O)CC[C@H](NC(=O)CCCCCCCCCCCCCCCCC(=O)O)C(=O)O)NC(=O)[C@H](CO)NC(=O)[C@H](CO)NC(=O)[C@H](Cc1c[nH]cn1)NC(=O)[C@H](Cc1c[nH]cn1)NC(=O)[C@H](CC(C)C)NC(=O)[C@H](Cc1ccccc1)NC(=O)[C@H](CCC(=O)O)NC(=O)[C@H](C)NC(=O)[C@H](CC(C)C)NC(=O)[C@H](CCCNC(=N)N)NC(=O)[C@H](CCC(N)=O)NC(=O)[C@@H](NC(=O)[C@H](C)NC(=O)[C@@H]1CSSC[C@H](NC(=O)[C@@H](N)CCCCN)C(=O)N[C@@H](CC(N)=O)C(=O)N[C@@H]([C@@H](C)O)C(=O)N[C@@H](C)C(=O)N[C@@H]([C@@H](C)O)C(=O)N1)[C@@H](C)O)C(=O)N[C@@H](CC(C)C)C(=O)N1CCC[C@H]1C(=O)N1CCC[C@H]1C(=O)N[C@H](C(=O)N[C@@H](CC(N)=O)C(=O)N[C@H](C(=O)NCC(=O)N[C@@H](CO)C(=O)N[C@@H](CCC(=O)O)C(=O)N[C@H](C(=O)N[C@@H](Cc1ccc(O)cc1)C(N)=O)[C@@H](C)O)C(C)C)[C@@H](C)O", "note": "[Example 74, N-epsilon21-[2-(2-{2-[2-(2-{2-[(S)-4-Carboxy-4-(17-carboxyheptadecanoylamino)butyrylamino]ethoxy}ethoxy)acetylamino]ethoxy}ethoxy)acetyl]-[Glu14,His17,Lys21,Glu35]-pramlintide] (H-KCNTATCATQRLAEFLHHSSK([AEEA-AEEA-γGlu-C18 diacid])NFGPILPPTNVGSETY-NH2; disulfide 2-7 (inferred))", "values": [{"measurement": "ThT pH 4.0 lag time", "setting": "[1]; Table 8", "value": ">45", "unit": "h"}, {"measurement": "ThT pH 4.0 lag time", "setting": "[1]; Table 9", "value": ">45", "unit": "h"}, {"measurement": "ThT pH 4.0 lag time", "setting": "[1]; ThT fibrillation assay", "value": ">45", "unit": "h"}, {"measurement": "ThT pH 4.0 lag time (h)", "setting": "[1]; ThT fibrillation assay", "value": ">45", "unit": "h"}]}, {"molecule": "CC(C)C[C@H](NC(=O)[C@H](CCCNC(=N)N)NC(=O)[C@H](CCC(N)=O)NC(=O)[C@@H](NC(=O)[C@H](C)NC(=O)[C@@H]1CSSC[C@H](NC(=O)[C@@H](N)CCCCNC(=O)CC[C@H](NC(=O)CCCCCCCCCCCCCCCCCCC(=O)O)C(=O)O)C(=O)N[C@@H](CC(N)=O)C(=O)N[C@@H]([C@@H](C)O)C(=O)N[C@@H](C)C(=O)N[C@@H]([C@@H](C)O)C(=O)N1)[C@@H](C)O)C(=O)N[C@@H](C)C(=O)N[C@@H](CCC(=O)O)C(=O)N[C@@H](Cc1ccccc1)C(=O)N[C@@H](CC(C)C)C(=O)N[C@@H](Cc1c[nH]cn1)C(=O)N[C@@H](Cc1c[nH]cn1)C(=O)N[C@@H](CO)C(=O)N[C@@H](CO)C(=O)N[C@@H](CCC(N)=O)C(=O)N[C@@H](CC(N)=O)C(=O)N[C@@H](Cc1ccccc1)C(=O)NCC(=O)N[C@@H](C)C(=O)N1CCC[C@H]1C(=O)N[C@@H](CC(C)C)C(=O)N[C@@H](CO)C(=O)N[C@@H](CO)C(=O)N[C@H](C(=O)N[C@@H](CC(N)=O)C(=O)N[C@H](C(=O)NCC(=O)N[C@@H](CO)C(=O)N[C@@H](CC(N)=O)C(=O)N[C@H](C(=O)N1CCC[C@H]1C(N)=O)[C@@H](C)O)C(C)C)[C@@H](C)O", "note": "[Example 151, N-epsilon1-[(S)-4-Carboxy-4-(19-carboxynonadecanoylamino)butyryl]-[Glu14,His17,Gln21,Ala25,Pro26,Ser28,Ser29,Pro37]-pramlintide] (H-K([γGlu-C20 diacid])CNTATCATQRLAEFLHHSSQNFGAPLSSTNVGSNTP-NH2; disulfide 2-7 (inferred))", "values": [{"measurement": "ThT pH 4.0 lag time (h)", "setting": "[1]; ThT fibrillation assay", "value": 9, "unit": "h"}]}, {"molecule": "CC[C@H](C)[C@H](NC(=O)[C@@H]1CCCN1C(=O)CNC(=O)[C@H](Cc1ccccc1)NC(=O)[C@H](CC(N)=O)NC(=O)[C@H](C)NC(=O)[C@H](CO)NC(=O)[C@H](CO)NC(=O)[C@H](Cc1c[nH]cn1)NC(=O)[C@H](Cc1c[nH]cn1)NC(=O)[C@H](CC(C)C)NC(=O)[C@H](Cc1ccccc1)NC(=O)[C@H](CCC(=O)O)NC(=O)[C@H](C)NC(=O)[C@H](CC(C)C)NC(=O)[C@H](CCCNC(=N)N)NC(=O)[C@H](CCC(N)=O)NC(=O)[C@@H](NC(=O)[C@H](C)NC(=O)[C@@H]1CSSC[C@H](NC(=O)[C@H](CCCCN)NC(=O)COCCOCCNC(=O)COCCOCCNC(=O)CC[C@H](NC(=O)CCCCCCCCCCCCCCCCCCC(=O)O)C(=O)O)C(=O)N[C@@H](CC(N)=O)C(=O)N[C@@H]([C@@H](C)O)C(=O)N[C@@H](C)C(=O)N[C@@H]([C@@H](C)O)C(=O)N1)[C@@H](C)O)C(=O)N[C@@H](CC(C)C)C(=O)N1CCC[C@H]1C(=O)N1CCC[C@H]1C(=O)N[C@H](C(=O)N[C@@H](CC(N)=O)C(=O)N[C@H](C(=O)NCC(=O)N[C@@H](CO)C(=O)N[C@@H](CC(N)=O)C(=O)N[C@H](C(=O)N1CCC[C@H]1C(N)=O)[C@@H](C)O)C(C)C)[C@@H](C)O", "note": "[Example 169, N-alpha-[2-(2-{2-[2-(2-{2-[(S)-4-Carboxy-4-(19-carboxyheptadecanoylamino)butyrylamino]ethoxy}ethoxy)acetylamino]ethoxy}ethoxy)acetyl]-[Glu14,His17,Ala21,Pro37]-pramlintide] ({C20 diacid-γGlu-AEEA-AEEA}-KCNTATCATQRLAEFLHHSSANFGPILPPTNVGSNTP-NH2; disulfide 2-7)", "values": [{"measurement": "solubility", "setting": "[2]; pH 3, pH 3.0, read-out: Solubility pH 3.0", "value": "> 200", "unit": "µM"}, {"measurement": "solubility", "setting": "[2]; pH 4, pH 4.0, 18 hours at room temperature, Table 2, read-out: Solubility pH 4.0", "value": "> 200", "unit": "µM"}, {"measurement": "solubility", "setting": "[2]; pH 4, pH 4.0, read-out: Solubility pH 4.0", "value": "> 200", "unit": "µM"}, {"measurement": "solubility", "setting": "[2]; pH 5, pH 5.0, read-out: Solubility pH 5.0", "value": "> 200", "unit": "µM"}, {"measurement": "solubility", "setting": "[2]; pH 6, pH 6.0, read-out: Solubility pH 6.0", "value": "> 200", "unit": "µM"}, {"measurement": "solubility", "setting": "[2]; pH 6.5, pH 6.5, read-out: Solubility pH 6.5", "value": "> 200", "unit": "µM"}, {"measurement": "solubility", "setting": "[2]; pH 7, pH 7.0, 18 hours at room temperature, Table 3, read-out: Solubility pH 7.0", "value": "> 200", "unit": "µM"}, {"measurement": "solubility", "setting": "[2]; pH 7, pH 7.0, read-out: Solubility pH 7.0", "value": "> 200", "unit": "µM"}, {"measurement": "solubility", "setting": "[2]; pH 7.5, pH 7.5, read-out: Solubility pH 7.5", "value": "> 200", "unit": "µM"}, {"measurement": "solubility", "setting": "[2]; pH 8, pH 8.0, read-out: Solubility pH 8.0", "value": "> 200", "unit": "µM"}]}]}
